Activity calls are given as the source filed them. The rule behind the calls is not given here.
Legend:
[1] = system: SH-SY5Y; experiment: Cytoprotection against oxygen-glucose deprivation/reperfusion-induced cell death in human SH-SY5Y cells assessed as reduction in LDH leakage at 100 umol/L pretreated for 24 hrs followed by oxygen-glucose deprivation for 10 hrs and reperfusion for 24 hrs; format: functional, cell-based
[2] = system: SH-SY5Y; experiment: Cytoprotection against oxygen-glucose deprivation/reperfusion-induced cell death in human SH-SY5Y cells assessed as increase in cell viability at 100 umol/L pretreated for 24 hrs followed by oxygen-glucose deprivation for 10 hrs and reperfusion for 24 hrs by MTT assay; format: functional, cell-based
[3] = system: SH-SY5Y; experiment: Cytoprotection against oxygen-glucose deprivation/reperfusion-induced cell death in human SH-SY5Y cells assessed as decrease in cleaved caspase-3 level at 100 umol/L pretreated for 24 hrs followed by oxygen-glucose deprivation for 10 hrs and reperfusion for 24 hrs by Western blot analysis; format: functional, cell-based
[4] = system: SH-SY5Y; experiment: Cytoprotection against oxygen-glucose deprivation/reperfusion-induced cell death in human SH-SY5Y cells assessed as decrease in Bax m-RNA expression at 100 umol/L pretreated for 24 hrs followed by oxygen-glucose deprivation for 10 hrs and reperfusion for 24 hrs by RT-qPCR analysis; format: functional, cell-based
[5] = system: SH-SY5Y; experiment: Cytoprotection against oxygen-glucose deprivation/reperfusion-induced cell death in human SH-SY5Y cells assessed as increase in Bcl2 m-RNA expression at 100 umol/L pretreated for 24 hrs followed by oxygen-glucose deprivation for 10 hrs and reperfusion for 24 hrs by RT-qPCR analysis; format: functional, cell-based
[6] = system: SH-SY5Y; experiment: Cytoprotection against oxygen-glucose deprivation/reperfusion-induced cell death in human SH-SY5Y cells assessed as increase in cell viability at 25 to 125 umol/L pretreated for 24 hrs followed by oxygen-glucose deprivation for 10 hrs and reperfusion for 24 hrs by MTT assay; format: functional, cell-based
[7] = system: SH-SY5Y; experiment: Cytoprotection against oxygen-glucose deprivation/reperfusion-induced cell death in human SH-SY5Y cells assessed as reduction in LDH leakage at 25 to 125 umol/L pretreated for 24 hrs followed by oxygen-glucose deprivation for 10 hrs and reperfusion for 24 hrs; format: functional, cell-based
[8] = system: SH-SY5Y; experiment: Cytoprotection against oxygen-glucose deprivation/reperfusion-induced cell death in human SH-SY5Y cells assessed as reduction in LDH leakage at 1 to 5 umol/L pretreated for 24 hrs followed by oxygen-glucose deprivation for 10 hrs and reperfusion for 24 hrs; format: functional, cell-based
[9] = system: SH-SY5Y; experiment: (§1) Cytoprotection against oxygen-glucose deprivation/reperfusion-induced cell death in human SH-SY5Y cells assessed as early apoptotic cells at 1 umol/L pretreated for 24 hrs followed by oxygen-glucose deprivation for 10 hrs and reperfusion for 24 hrs by annexin V-FITC-propidium iodide staining-based flow cytometry method (reference value: 24.0%); format: functional
[10] = system: SH-SY5Y; experiment: as §1, with “late” for “early”, “10.5%)” for “24.0%)”; format: functional
[11] = system: SH-SY5Y; experiment: as §1, with “necrotic” for “early apoptotic”, “2.3%)” for “24.0%)”; format: functional
[12] = system: SH-SY5Y; experiment: as §1, with “viable” for “early apoptotic”, “63.2%)” for “24.0%)”; format: functional; settings: read-out: Activity
[13] = system: SH-SY5Y; experiment: as §1, with “at 5” for “at 1”; format: functional
[14] = system: SH-SY5Y; experiment: as §1, with “as late” for “as early”, “at 5” for “at 1”, “value: 10.5%)” for “value: 24.0%)”; format: functional
[15] = system: SH-SY5Y; experiment: as §1, with “as necrotic” for “as early apoptotic”, “at 5” for “at 1”, “value: 2.3%)” for “value: 24.0%)”; format: functional
[16] = system: SH-SY5Y; experiment: as §1, with “as viable” for “as early apoptotic”, “at 5” for “at 1”, “value: 63.2%)” for “value: 24.0%)”; format: functional; settings: read-out: Activity
[17] = system: SH-SY5Y; experiment: as §1, with “at 25” for “at 1”; format: functional
[18] = system: SH-SY5Y; experiment: as §1, with “as late” for “as early”, “at 25” for “at 1”, “value: 10.5%)” for “value: 24.0%)”; format: functional
[19] = system: SH-SY5Y; experiment: as §1, with “as necrotic” for “as early apoptotic”, “at 25” for “at 1”, “value: 2.3%)” for “value: 24.0%)”; format: functional
[20] = system: SH-SY5Y; experiment: as §1, with “as viable” for “as early apoptotic”, “at 25” for “at 1”, “value: 63.2%)” for “value: 24.0%)”; format: functional; settings: read-out: Activity
[21] = system: SH-SY5Y; experiment: as §1, with “at 125” for “at 1”; format: functional
[22] = system: SH-SY5Y; experiment: as §1, with “as late” for “as early”, “at 125” for “at 1”, “value: 10.5%)” for “value: 24.0%)”; format: functional
[23] = system: SH-SY5Y; experiment: as §1, with “as necrotic” for “as early apoptotic”, “at 125” for “at 1”, “value: 2.3%)” for “value: 24.0%)”; format: functional
[24] = system: SH-SY5Y; experiment: as §1, with “as viable” for “as early apoptotic”, “at 125” for “at 1”, “value: 63.2%)” for “value: 24.0%)”; format: functional; settings: read-out: Activity
[25] = system: SH-SY5Y; experiment: as §1, with “cells” for “cells at 1 umol/L”; format: functional
[26] = system: SH-SY5Y; experiment: as §1, with “late” for “early”, “cells” for “cells at 1 umol/L”, “10.5%)” for “24.0%)”; format: functional
[27] = system: SH-SY5Y; experiment: as §1, with “necrotic” for “early apoptotic”, “cells” for “cells at 1 umol/L”, “2.3%)” for “24.0%)”; format: functional
[28] = system: SH-SY5Y; experiment: as §1, with “viable” for “early apoptotic”, “cells” for “cells at 1 umol/L”, “63.2%)” for “24.0%)”; format: functional
[29] = system: SH-SY5Y; experiment: Cytoprotection against oxygen-glucose deprivation/reperfusion-induced cell death in human SH-SY5Y cells assessed as decrease in cleaved caspase-3 level at 25 to 125 umol/L pretreated for 24 hrs followed by oxygen-glucose deprivation for 10 hrs and reperfusion for 24 hrs by Western blot analysis; format: functional, cell-based
[30] = system: SH-SY5Y; experiment: Cytoprotection against oxygen-glucose deprivation/reperfusion-induced cell death in human SH-SY5Y cells assessed as decrease in Bax protein level at 5 to 125 umol/L pretreated for 24 hrs followed by oxygen-glucose deprivation for 10 hrs and reperfusion for 24 hrs by Western blot analysis; format: functional, cell-based
[31] = system: SH-SY5Y; experiment: Cytoprotection against oxygen-glucose deprivation/reperfusion-induced cell death in human SH-SY5Y cells assessed as increase in Bcl-2 protein level at 5 to 125 umol/L pretreated for 24 hrs followed by oxygen-glucose deprivation for 10 hrs and reperfusion for 24 hrs by Western blot analysis; format: functional, cell-based
[32] = system: SH-SY5Y; experiment: Cytoprotection against oxygen-glucose deprivation/reperfusion-induced cell death in human SH-SY5Y cells assessed as decrease in Bax m-RNA expression pretreated for 24 hrs followed by oxygen-glucose deprivation for 10 hrs and reperfusion for 24 hrs by RT-qPCR analysis; format: functional, cell-based
[33] = system: SH-SY5Y; experiment: Cytoprotection against oxygen-glucose deprivation/reperfusion-induced cell death in human SH-SY5Y cells assessed as decrease in Bax m-RNA expression at 125 umol/L pretreated for 24 hrs followed by oxygen-glucose deprivation for 10 hrs and reperfusion for 24 hrs by RT-qPCR analysis; format: functional, cell-based
[34] = system: SH-SY5Y; experiment: Cytoprotection against oxygen-glucose deprivation/reperfusion-induced cell death in human SH-SY5Y cells assessed as increase in Bcl2 m-RNA expression pretreated for 24 hrs followed by oxygen-glucose deprivation for 10 hrs and reperfusion for 24 hrs by RT-qPCR analysis; format: functional, cell-based
[35] = system: SH-SY5Y; experiment: Cytoprotection against oxygen-glucose deprivation/reperfusion-induced cell death in human SH-SY5Y cells assessed as increase in Bcl2 m-RNA expression at 125 umol/L pretreated for 24 hrs followed by oxygen-glucose deprivation for 10 hrs and reperfusion for 24 hrs by RT-qPCR analysis; format: functional, cell-based

COCCOC(=O)C1=C(C)NC(C)=C(C(=O)OC(C)C)C1c1cccc([N+](=O)[O-])c1 (stereo not given)
Activity [1]: Active | Activity [2]: Active | Activity [3]: Active | Activity [4]: Active | Activity [5]: Active

CC(C)=CCC[C@](C)(O)[C@H]1CC[C@]2(C)[C@@H]1[C@H](O)C[C@@H]1[C@@]3(C)CC[C@H](O[C@@H]4O[C@H](CO)[C@@H](O)[C@H](O)[C@H]4O[C@@H]4O[C@H](CO)[C@@H](O)[C@H](O)[C@H]4O)C(C)(C)[C@@H]3CC[C@]12C
Activity [6]: Active | Activity [7]: Active | Activity [8]: inactive | Activity [9]: 17% | Activity [10]: 10.3% | Activity [11]: 2.7% | viability at 1 µM [12]: 69.9% | Activity [13]: 13% | Activity [14]: 11.3% | Activity [15]: 5.8% | viability at 5 µM [16]: 70% | Activity [17]: 7.9% | Activity [18]: 5.7% | Activity [19]: 8.9% | viability at 25 µM [20]: 77.5% | Activity [21]: 5% | Activity [22]: 4.8% | Activity [23]: 9.8% | viability at 125 µM [24]: 80.4% | Activity [25]: 8% | Activity [26]: 2.8% | Activity [27]: 8.9% | Activity [28]: 80.4% | Activity [29]: Active | Activity [30]: Active | Activity [31]: Active | Activity [32]: Dose-dependent effect | Activity [33]: Active | Activity [34]: Dose-dependent effect | Activity [35]: Active
